{"source": "paper PMC7690608", "about": "“Combination Therapy of High-Dose Rabeprazole Plus Metronomic Capecitabine in Advanced Gastro-Intestinal Cancer: A Randomized Phase II Trial” (Cancers, 2020)", "key": {"[1]": {"system": "tumor pH", "design": "method as in PMID 19876915", "settings": "in vivo experiments; tumor pH shifts toward neutrality after treatment; cited from earlier work"}, "[2]": {"design": "species or system patients", "settings": "in vivo", "method": "This is a randomized phase II study designed to detect the advantage of adding rabeprazole to mCAP as palliative treatment for patients with metastatic GI cancer, as previously described. Eligible patients were randomly assigned 1:1 to capecitabine, 1500 mg/daily, continuously with or without rabeprazole 1.5 mg/kg bid, three days a week. The randomization was computer generated by a statistician not involved in data collection, who was called by phone at the time of assignment. The protocol was not interrupted until progression of disease, unacceptable toxicity or death occurrence. This study was designed with the primary endpoint of 3-months progression-free survival (PFS) rate. […] Safety was evaluated by considering overall incidence and severity of adverse events (AEs) as well as the seriousness and drug-relatedness of each event (CTCAE v.4.03). […] Plasma concentrations of capecitabine and its metabolites, 5′-deoxy-5′-fluorouridine (5′-DFUR) and 5- fluorouracil (5-FU), were evaluated in order to assess the potential interaction between capecitabine and rabeprazole. […] Plasma samples, calibration standard samples and quality-control (QC) samples were analyzed using a high-performance liquid chromatography (HPLC) tandem mass spectrometry (LC/MS-MS) analytical method. […]"}, "[3]": {"system": "metastatic gastrointestinal (GI) cancer", "experiment": "Randomized phase II trial: efficacy (3-months PFS, PFS, clinical benefit, OS; RECIST 1.1)", "format": "in vivo, patients", "description": "In addition, patients had to be 18 years of age or older, to have adequate bone-marrow, liver, and renal function and to have an Eastern Cooperative Oncology Group (ECOG) performance status ≤2. Meanwhile, the presence of one of the following criteria excluded patients’ participation to the study protocol: GI tumors that can be treated with standard treatments, cardiovascular or CNS disease, previously untreated CNS metastases, pregnant or breast-feeding patients, organ dysfunctions that usually hinder the use of cytotoxic drugs, and/or substance abuse and any other psychological condition that may interfere with the evaluation of study results. All patients were randomized and treated at the Oncology Unit of Sant’Andrea University Hospital, Rome. Every cancer patient is commonly managed at our Institution by a multidisciplinary team, who provides for the starting and the following clinical evaluations.\nThis is a randomized phase II study designed to detect the advantage of adding rabeprazole to mCAP as palliative treatment for patients with metastatic GI cancer, as previously described. Eligible patients were randomly assigned 1:1 to capecitabine, 1500 mg/daily, continuously with or without rabeprazole 1.5 mg/kg bid, three days a week. The randomization was computer generated by a statistician not involved in data collection, who was called by phone at the time of assignment. The protocol was not interrupted until progression of disease, unacceptable toxicity or death occurrence. This study was designed with the primary endpoint of 3-months progression-free survival (PFS) rate. PFS was defined as the length of time from the first dose of study drug to the date of the first documented disease progression according to the Response Evaluation Criteria in Solid Tumors (RECIST), version 1.1, or death for any reason, with censoring at the date of the last contact for alive patients. Secondary endpoints included the evaluation of clinical benefit (CB), which reflects the proportion of patients with complete response (CR), partial response (PR) and stable disease (SD) and overall survival (OS). The crossover between treatment groups was not allowed before the final analysis of the primary end point. Safety was evaluated by considering overall incidence and severity of adverse events (AEs) as well as the seriousness and drug-relatedness of each event (CTCAE v.4.03). AEs with an onset during treatment, or within 28 days after the last dose of the study drug, were considered as having occurred during treatment. We grouped anemia, neutropenia, and thrombocytopenia in hematological toxicity; diarrhea, nausea, and vomiting in gastrointestinal toxicity. In the two protocol arms, plasma concentrations of capecitabine and its metabolites were determined at 2 h from the assumption of two tablet of capecitabine (1000 mg), corresponding to the tmax of the drug. Plasma concentrations of capecitabine and its metabolites, 5′-deoxy-5′-fluorouridine (5′-DFUR) and 5- fluorouracil (5-FU), were evaluated in order to assess the potential interaction between capecitabine and rabeprazole. Blood samples (7 mL) were collected in vacutainers containing ethylenediaminetetraacetic acid (EDTA) as anticoagulant, then centrifuged and the plasma samples were stored at −20 °C until analysis. […] Plasma samples, calibration standard samples and quality-control (QC) samples were analyzed using a high-performance liquid chromatography (HPLC) tandem mass spectrometry (LC/MS-MS) analytical method. […]"}, "[4]": {"system": "patients with metastatic GI cancer", "experiment": "Randomized phase II trial: safety, adverse events (CTCAE v.4.03)", "settings": "in vivo", "method": "This is a randomized phase II study designed to detect the advantage of adding rabeprazole to mCAP as palliative treatment for patients with metastatic GI cancer, as previously described. Eligible patients were randomly assigned 1:1 to capecitabine, 1500 mg/daily, continuously with or without rabeprazole 1.5 mg/kg bid, three days a week. The randomization was computer generated by a statistician not involved in data collection, who was called by phone at the time of assignment. The protocol was not interrupted until progression of disease, unacceptable toxicity or death occurrence. This study was designed with the primary endpoint of 3-months progression-free survival (PFS) rate. PFS was defined as the length of time from the first dose of study drug to the date of the first documented disease progression according to the Response Evaluation Criteria in Solid Tumors (RECIST), version 1.1, or death for any reason, with censoring at the date of the last contact for alive patients. Secondary endpoints included the evaluation of clinical benefit (CB), which reflects the proportion of patients with complete response (CR), partial response (PR) and stable disease (SD) and overall survival (OS). The crossover between treatment groups was not allowed before the final analysis of the primary end point. Safety was evaluated by considering overall incidence and severity of adverse events (AEs) as well as the seriousness and drug-relatedness of each event (CTCAE v.4.03). AEs with an onset during treatment, or within 28 days after the last dose of the study drug, were considered as having occurred during treatment. We grouped anemia, neutropenia, and thrombocytopenia in hematological toxicity; diarrhea, nausea, and vomiting in gastrointestinal toxicity. In the two protocol arms, plasma concentrations of capecitabine and its metabolites were determined at 2 h from the assumption of two tablet of capecitabine (1000 mg), corresponding to the tmax of the drug. Plasma concentrations of capecitabine and its metabolites, 5′-deoxy-5′-fluorouridine (5′-DFUR) and 5- fluorouracil (5-FU), were evaluated in order to assess the potential interaction between capecitabine and rabeprazole. Blood samples (7 mL) were collected in vacutainers containing ethylenediaminetetraacetic acid (EDTA) as anticoagulant, then centrifuged and the plasma samples were stored at −20 °C until analysis. Plasma samples were collected at the start of the study, after 4 and 8 weeks of treatment. Plasma samples, calibration standard samples and quality-control (QC) samples were analyzed using a high-performance liquid chromatography (HPLC) tandem mass spectrometry (LC/MS-MS) analytical method. Plasma concentrations were reported in µg/mL (mean values and standard deviation (SD)).\nThe study was designed to have 90% power to detect a hazard ratio for the 3-months PFS of 0.60 (a 40% reduction in risk) in the mCAP-rabeprazole group as compared with the mCAP group, with a one-sided type I error rate of 0.05. Given the treatment assignment ratio of 1:1, we calculated that 66 patients had to be enrolled in the study, and at least 60 events (progression disease) would have been required for the primary analysis. For PFS and OS, the stratified log-rank test was used independently at the 2-sided, 0.05 level of significance, and Kaplan–Meier estimates performed for the graphic representation of both findings. An exact logistic regression model was used to test for a difference in CB between treatments, with the model adjusted by the same factors used to stratify the primary analysis of PFS. Adverse events and laboratory abnormalities were summarized for all patients who received at least one dose of study drug. The χ^2–test and t-test for unpaired data were applied to compare frequencies and means, respectively. SPSS statistical software, Version 24 (SPSS Inc. Chicago, IL, USA) was used."}, "[5]": {"system": "early stage colorectal cancer", "design": "method as in PMID 26803708", "settings": "cited from earlier work"}}, "note": "Read-outs that look alike come from different tables or passages of the source.", "data": [{"smiles": "COc1ccc2nc([S@@+]([O-])Cc3ncc(C)c(OC)c3C)[nH]c2c1", "note": "[esomeprazole]", "values": [{"measurement": "time for tumor pH to return to acidity after treatment discontinuation", "setting": "[1]", "value": "≤ 48", "unit": "h"}]}, {"smiles": "O=c1[nH]cc(F)c(=O)[nH]1", "note": "[5-FU, 5-fluorouracil]", "values": [{"measurement": "plasma values in the pre-dose analysis", "setting": "[2]", "value": "below zero"}]}, {"smiles": "CCCCCOC(=O)Nc1nc(=O)n([C@@H]2O[C@H](C)[C@@H](O)[C@H]2O)cc1F", "note": "[mCAP, capecitabine]", "values": [{"measurement": "median OS", "setting": "[3]; Kaplan–Meier", "value": "6.0 (95%CI 4.0–7.9) months"}, {"measurement": "median PFS", "setting": "[3]; Kaplan–Meier", "value": 3.0, "unit": "months"}, {"measurement": "3-year OS rate", "setting": "[3]; human, in vivo", "value": 12, "unit": "%"}, {"measurement": "patients who reported a clinical benefit (CB: CR+PR+SD)", "setting": "[3]; human, in vivo", "value": 31, "unit": "%"}, {"measurement": "patients who experienced a progression of the disease at the 3-months evaluation (primary end-point)", "setting": "[3]; intention-to-treat, mCAP 1500 mg/daily with or without rabeprazole 1.5 mg/kg bid three days a week", "value": 57, "unit": "%"}, {"measurement": "Gastrointestinal G1, patients", "setting": "[4]; human", "value": 14, "unit": "%"}, {"measurement": "Gastrointestinal G2, patients", "setting": "[4]; human", "value": 9, "unit": "%"}, {"measurement": "Hand-foot syndrome G1, patients", "setting": "[4]; human", "value": 3, "unit": "%"}, {"measurement": "Hand-foot syndrome G2, patients", "setting": "[4]; human", "value": 11, "unit": "%"}, {"measurement": "Hematological toxicity G1, patients", "setting": "[4]; human", "value": 6, "unit": "%"}, {"measurement": "Hematological toxicity G2, patients", "setting": "[4]; human", "value": 6, "unit": "%"}, {"measurement": "Nausea", "setting": "[4]; human", "value": 1, "unit": "n."}, {"measurement": "Neutropenia", "setting": "[4]; human", "value": 0, "unit": "n."}, {"measurement": "adverse events of any grade, patients", "setting": "[4]; human", "value": 29, "unit": "%"}, {"measurement": "severe adverse events", "setting": "[4]", "value": "no severe adverse event"}, {"measurement": "plasma values in the pre-dose analysis", "setting": "[2]", "value": "below zero"}, {"measurement": "Five-year recurrence-free survival", "setting": "[5]; adjuvant capecitabine with concurrent PPIs consumption", "value": 74, "unit": "%"}, {"measurement": "Five-year recurrence-free survival", "setting": "[5]; adjuvant capecitabine without concurrent PPIs consumption", "value": 83, "unit": "%"}, {"measurement": "HR for five-year recurrence-free survival", "setting": "[5]; with vs. without concurrent PPIs, p = 0.03", "value": 1.89}]}]}
